Experimental findings from patent US20220041597A1 (FORMA Therapeutics, Inc., priority 2018, published 2022) are described below.

For the assay, the target named is USP9X (Homo sapiens, UniProt Q93008). The assay is described as follows: Biochemical Assay for USP9X Inhibition (Ub-Rh110 fluorescence). The following applies: Ub-Rh110 25 nM, 30 min preincubation. How it is done: Concentration and incubation times were optimized for the maximal signal-to-background while maintaining initial velocity conditions at a fixed substrate concentration (<<Km). […] To assay plates (pre-stamped with compound) was added 3 μL 2× Enzyme. The enzyme was preincubated for 30 minutes and then treated with 3 μL of 2× Substrate. […] The slope (best fit linear regression) of the five reads was used to normalize for inhibition. For all assays, data are reported as percent inhibition compared with control wells based on the following equation: […], wherein FLU is measured Fluorescence, AveLow is average Fluorescence of no enzyme control (n=64), and AveHigh is average Fluorescence of DMSO control (n=64). IC50 values are determined by curve fitting of the standard 4 parameter logistic fitting algorithm included in the Activity Base software package: IDBS XE Designer Model205. Data are fitted using the Levenburg Marquardt algorithm.

Some results are limits rather than exact numbers.

Sequence of USP9X (Q93008 whole entry): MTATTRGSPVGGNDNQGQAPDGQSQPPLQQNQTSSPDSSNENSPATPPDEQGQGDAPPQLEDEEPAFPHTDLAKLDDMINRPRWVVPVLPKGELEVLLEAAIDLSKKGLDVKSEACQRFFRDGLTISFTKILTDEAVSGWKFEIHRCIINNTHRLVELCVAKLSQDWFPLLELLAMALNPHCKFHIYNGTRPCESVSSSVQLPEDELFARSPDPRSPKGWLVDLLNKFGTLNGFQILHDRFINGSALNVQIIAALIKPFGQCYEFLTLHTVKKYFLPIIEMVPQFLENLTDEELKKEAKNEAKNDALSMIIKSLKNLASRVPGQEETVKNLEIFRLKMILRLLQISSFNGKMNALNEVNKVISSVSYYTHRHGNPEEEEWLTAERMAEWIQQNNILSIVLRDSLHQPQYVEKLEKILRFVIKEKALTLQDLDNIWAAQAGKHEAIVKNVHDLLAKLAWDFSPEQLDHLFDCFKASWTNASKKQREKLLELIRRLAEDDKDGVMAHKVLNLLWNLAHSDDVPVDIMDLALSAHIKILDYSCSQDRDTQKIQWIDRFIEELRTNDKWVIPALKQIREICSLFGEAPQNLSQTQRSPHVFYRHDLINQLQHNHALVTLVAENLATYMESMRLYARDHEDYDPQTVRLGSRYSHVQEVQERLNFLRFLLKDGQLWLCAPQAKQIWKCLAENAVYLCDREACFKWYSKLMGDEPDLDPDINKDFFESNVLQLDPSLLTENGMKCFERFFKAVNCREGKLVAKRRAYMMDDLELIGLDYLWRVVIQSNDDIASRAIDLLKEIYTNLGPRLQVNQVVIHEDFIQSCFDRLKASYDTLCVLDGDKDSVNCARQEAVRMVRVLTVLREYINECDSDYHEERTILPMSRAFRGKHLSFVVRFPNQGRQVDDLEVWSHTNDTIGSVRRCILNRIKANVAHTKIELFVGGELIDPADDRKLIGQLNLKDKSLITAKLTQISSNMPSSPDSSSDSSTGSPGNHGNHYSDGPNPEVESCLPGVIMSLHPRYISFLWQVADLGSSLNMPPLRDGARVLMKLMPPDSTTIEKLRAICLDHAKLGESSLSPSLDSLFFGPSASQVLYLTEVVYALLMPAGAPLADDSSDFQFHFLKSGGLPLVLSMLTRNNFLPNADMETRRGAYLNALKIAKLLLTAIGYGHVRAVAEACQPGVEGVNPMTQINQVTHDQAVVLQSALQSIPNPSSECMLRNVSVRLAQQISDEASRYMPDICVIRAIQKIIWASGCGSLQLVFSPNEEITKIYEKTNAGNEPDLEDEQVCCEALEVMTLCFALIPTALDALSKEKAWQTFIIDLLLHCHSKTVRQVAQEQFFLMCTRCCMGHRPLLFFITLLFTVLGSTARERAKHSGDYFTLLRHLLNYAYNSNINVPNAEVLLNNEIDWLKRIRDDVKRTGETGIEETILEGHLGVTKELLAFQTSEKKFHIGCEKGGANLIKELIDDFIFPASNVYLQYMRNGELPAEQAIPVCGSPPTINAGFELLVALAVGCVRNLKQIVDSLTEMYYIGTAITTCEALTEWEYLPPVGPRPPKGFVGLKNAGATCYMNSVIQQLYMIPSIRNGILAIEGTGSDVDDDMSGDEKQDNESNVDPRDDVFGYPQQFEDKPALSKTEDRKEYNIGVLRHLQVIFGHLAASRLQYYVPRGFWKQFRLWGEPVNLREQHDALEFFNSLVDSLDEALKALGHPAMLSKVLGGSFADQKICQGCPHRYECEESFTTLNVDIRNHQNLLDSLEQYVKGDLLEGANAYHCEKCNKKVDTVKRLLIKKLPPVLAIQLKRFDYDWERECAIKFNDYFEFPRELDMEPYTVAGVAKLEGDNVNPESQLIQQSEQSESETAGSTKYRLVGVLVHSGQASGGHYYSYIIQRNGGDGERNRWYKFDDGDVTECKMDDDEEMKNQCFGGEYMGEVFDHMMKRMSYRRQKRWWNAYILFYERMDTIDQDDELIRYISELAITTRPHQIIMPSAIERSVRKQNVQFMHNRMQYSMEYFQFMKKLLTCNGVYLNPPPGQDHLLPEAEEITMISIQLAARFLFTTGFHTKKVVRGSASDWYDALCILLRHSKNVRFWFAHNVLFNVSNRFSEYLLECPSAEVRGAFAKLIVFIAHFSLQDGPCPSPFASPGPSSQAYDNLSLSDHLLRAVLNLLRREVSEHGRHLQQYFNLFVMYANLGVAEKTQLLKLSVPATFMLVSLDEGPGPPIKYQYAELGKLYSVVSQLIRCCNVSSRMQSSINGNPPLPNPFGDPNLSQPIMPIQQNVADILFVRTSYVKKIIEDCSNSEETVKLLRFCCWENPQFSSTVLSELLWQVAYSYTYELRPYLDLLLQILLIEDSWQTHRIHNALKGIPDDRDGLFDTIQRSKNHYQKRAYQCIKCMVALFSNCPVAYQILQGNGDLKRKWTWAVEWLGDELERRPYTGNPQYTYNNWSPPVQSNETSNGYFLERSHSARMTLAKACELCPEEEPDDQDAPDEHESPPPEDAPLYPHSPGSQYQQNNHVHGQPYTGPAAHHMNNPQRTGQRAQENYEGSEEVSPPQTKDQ

As for `CN1CCC(Oc2cccc(C(O)c3cc4c(cn3)CN(S(=O)(=O)c3ccc(-c5ncco5)cc3)C4)c2)CC1` (single isomer, unassigned) [Example 78], where the note is “USP9X 0.025 nM”, the IC50 is 1 to 100 nM.

As for `CN1CCC(Oc2cccc(C(O)c3cc4c(cn3)CN(S(=O)(=O)c3ccc(-c5ncco5)cc3)C4)c2)CC1` (single isomer, unassigned) [Example 79], the IC50 (USP9X […]) lay within 1 to 100 nM.

For `O=S(=O)(c1ccc(-n2ccnc2)cc1)N1Cc2cnc(C(O)c3ccccc3)cc2C1` (centres unmarked) [Example 19], for the setting “USP9X 0.025 nM”, the IC50 was > 25000 nM.

For `O=S(=O)(C1CCN(c2nccs2)CC1)N1Cc2cnc(C(O)c3ccccc3)cc2C1` (centres unmarked) [Example 24], the IC50 (USP9X 0.025 nM) is > 25000 nM.

As to `O=S(=O)(C1CCN(c2ncco2)CC1)N1Cc2cnc(C(O)c3ccccc3)cc2C1` (centres unmarked) [Example 32, (2-{[1-(1,3-oxazol-2-yl)piperidin-4-yl]sulfonyl}-1H,2H,3H-pyrrolo[3,4-c]pyridine-6-yl)(phenyl)methanol], the IC50 (USP9X 0.025 nM) was > 25000 nM.
